From patent US20040054009A1, “(BIS)sulfonamide derivatives” (priority 2002, published 2004)

Experiments:
human GluR4 = human GluR4 (Homo sapiens, UniProt P48058); experiment: whole cell voltage clamp electrophysiological characterization of AMPA receptor potentiators (response to 100 μM glutamate); type: cell-based; conditions: HEK293 cells stably expressing human GluR4, voltage-clamped at −60 mV, Hill equation fit
Text: In another test, HEK293 cells stably expressing human GluR^4 (obtained as described in European Patent Application Publication No. EP-A1-0583917) were used in the electro-physiological characterization of AMPA receptor potentiators. The extracellular recording solution contained (in mM): 140 NaCl, 5 KCl, 10 HEPES, 1 MgCl2, 2 CaCl2, 10 glucose, pH=7.4 with NaOH, 295 mOsm kg^−1. The intracellular recording solution contained (in mM): 140 CsCl, 1 MgCl2, 10 HEPES, (N-[2-hydroxyethyl]piperazine-N^1-[2-ethanesulfonic acid]) 10 EGTA (ethylene-bis(oxyethylene-nitrilo)tetraacetic acid), pH=7.2 with CsOH, 295 mOsm kg^−1. […] Once stable baseline responses to this agonist challenge were obtained, the potentiator was introduced in the extracellular solution bathing the cells at the lowest concentration, and the response to 100 μM glutamate in the presence of this concentration of potentiator was determined.
The concentration of the potentiator, both in the bathing solution and co-applied with the agonist, was increased in half log units until the maximum potentiation was seen. […] Once the control responses to the agonist challenge were re-established, the potentiation of these responses by 100 μM cyclothiazide was determined by its inclusion in both the bathing solution and the agonist-containing solution. […]

human GluR4B receptor = biological target: T1, human GluR4B receptor (Homo sapiens, UniProt P48058); experiment: potentiation of agonist-induced excitability, HEK cells expressing human GluR4B (Fluo3-AM fluorescence, glutamate); type: cell-based; conditions: human GluR4B receptor expressed in HEK 293 cells
T1 construct: expressed in transfected cells
T1 sequence (P48058 21-902): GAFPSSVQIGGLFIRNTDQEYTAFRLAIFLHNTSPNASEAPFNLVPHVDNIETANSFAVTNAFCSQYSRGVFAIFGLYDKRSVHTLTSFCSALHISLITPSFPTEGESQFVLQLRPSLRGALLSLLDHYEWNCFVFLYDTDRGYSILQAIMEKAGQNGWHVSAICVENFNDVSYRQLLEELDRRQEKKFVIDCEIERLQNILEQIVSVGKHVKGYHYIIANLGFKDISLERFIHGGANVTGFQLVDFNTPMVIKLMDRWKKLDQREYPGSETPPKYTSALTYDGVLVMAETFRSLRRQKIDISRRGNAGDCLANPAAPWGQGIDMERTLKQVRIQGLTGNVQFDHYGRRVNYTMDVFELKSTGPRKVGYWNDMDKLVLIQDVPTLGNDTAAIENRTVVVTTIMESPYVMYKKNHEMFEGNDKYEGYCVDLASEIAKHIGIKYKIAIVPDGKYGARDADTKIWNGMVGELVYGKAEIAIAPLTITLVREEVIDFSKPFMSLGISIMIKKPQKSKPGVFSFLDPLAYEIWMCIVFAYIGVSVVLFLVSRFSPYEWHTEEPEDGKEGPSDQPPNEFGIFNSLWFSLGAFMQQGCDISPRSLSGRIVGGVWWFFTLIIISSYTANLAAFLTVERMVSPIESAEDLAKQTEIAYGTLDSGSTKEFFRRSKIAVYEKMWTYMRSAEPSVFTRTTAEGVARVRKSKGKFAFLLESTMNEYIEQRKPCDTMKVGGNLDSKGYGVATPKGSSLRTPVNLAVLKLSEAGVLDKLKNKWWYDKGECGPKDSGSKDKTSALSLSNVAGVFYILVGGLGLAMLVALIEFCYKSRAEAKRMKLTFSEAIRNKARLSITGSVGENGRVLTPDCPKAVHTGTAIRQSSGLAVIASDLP
Method: 96 well plates containing confluent monolayers of HEK cells stably expressing human GluR^4B (obtained as described in European Patent Application Publication Number EP-A1-583917) were prepared. The tissue culture medium in the wells was then discarded, and the wells were each washed once with 200 μl of 5NaCa buffer (glucose, 10 mM, sodium chloride, 138 mM, magnesium chloride, 1 mM, potassium chloride, 5 mM, calcium chloride, 5 mM, N-[2-hydroxyethyl]-piperazine-N-[2-ethanesulfonic acid], 10 mM, to pH 7.1 to 7.3). The plates were then incubated for 60 minutes in the dark with 20 μM Fluo3-AM dye (obtained from Molecular Probes Inc, Eugene, Oreg.) in 5 NaCa buffer in each well. After the incubation, each well was washed once with 100 μl 5NaCa buffer, 200 μl of 5NaCa buffer was added and the plates were incubated for 30 minutes. […]
Each test was then performed as follows. […] A first reading was then taken using a FLUOROSKAN II fluorimeter (Obtained from Labsystems, Needham Heights, Mass., USA, a Division of Life Sciences International Plc). […] A second reading was then taken using the fluorimeter. The plate was then left in the fluorimeter for 5 minutes, and a third reading was taken. 15 μl of 400 μM glutamate solution was then added to each well (final glutamate concentration 100 μM), and a fourth reading was taken immediately. Approximately three minutes later, a fifth reading was taken. […]

Chain of human GluR4 (P48058 21-902): as above

Work on `CC(C)(C)c1ccc(C2(CNS(=O)(=O)C(F)(F)F)CC2)cc1` [Example 24, N−1-(4-t-butylphenyl)cyclopropylmethyl Trifluoromethanesulfonamide] yielded a melting point of 82 to 84 °C.
`CC(C)S(=O)(=O)NCC1(c2ccc(C(C)(C)C)cc2)CC1` [Example 25, N-1-(4-t-butylphenyl)cyclopropylmethyl 2-propanesulfonamide] gave a melting point of 87 to 89.5 °C.
With `CC(CNS(=O)(=O)C(C)C)c1ccc(-c2ccsc2)cc1` (stereo not shown) [Example 28] the EC50 (human GluR4) was 230 ± 59 nM.
With `NS(=O)(=O)c1cc2c(cc1Cl)NC(C1CC3C=CC1C3)NS2(=O)=O` (stereo not shown) [cyclothiazide] the “potentiation of agonist-induced excitability of human GluR4B receptor” value (human GluR4B receptor) was “potentiate agonist-induced excitability”.
